# pIC50: −log10 of the molar value. Bridge positions count the residues as written; N and C are the ends. Square brackets hold non-standard residues; d marks the D form. Peptide text beside a SMILES is read from it. * marks the point of attachment. ξ: configuration not given here. Phe(3-CF3) = N[C@@H](Cc1cccc(C(F)(F)F)c1)C(=O)O; Ala(morpholin-4-yl) = N[C@@H](CN1CCOCC1)C(=O)O; Phe(4-CONH2) = NC(=O)c1ccc(C[C@H](N)C(=O)O)cc1; Phe(4-COOH) = N[C@@H](Cc1ccc(C(=O)O)cc1)C(=O)O; Bip = N[C@@H](Cc1ccc(-c2ccccc2)cc1)C(=O)O; NH(CH2)14COOH = O=C(O)CCCCCCCCCCCCCCN*; Phe(3-Me) = Cc1cccc(C[C@H](N)C(=O)O)c1; NH(CH2)12COOH = O=C(O)CCCCCCCCCCCCN*; PEG6 = NCCOCCOCCOCCOCCOCCOCCC(=O)O; Val(3-OH) = CC(C)(O)[C@H](N)C(=O)O; hArg = N=C(N)NCCCC[C@H](N)C(=O)O; 3Pal = N[C@@H](Cc1cccnc1)C(=O)O; 4Pal = N[C@@H](Cc1ccncc1)C(=O)O; Cha = N[C@@H](CC1CCCCC1)C(=O)O; Cit = NC(=O)NCCC[C@H](N)C(=O)O; aThr = C[C@H](O)[C@H](N)C(=O)O; Thr(3ξ) = CC(O)[C@H](N)C(=O)O; 12Ado = NCCCCCCCCCCCC(=O)O; Carboxymethyl = O=C(O)C*; Orn = NCCC[C@H](N)C(=O)O; Pra = C#CC[C@H](N)C(=O)O; Aun = NCCCCCCCCCCC(=O)O; Dab = NCC[C@H](N)C(=O)O; Dap = NC[C@H](N)C(=O)O; AEEA = NCCOCCOCC(=O)O; Ac3c = NC1(C(=O)O)CC1; Piv = CC(C)(C)C(=O)*; ξC = NC(CS)C(=O)O
# Molecular target: T1, PD-1/PD-L1 interaction (PE-labeled human PD-L1-Ig binding to Jurkat cell line over-expressing human PD-1) (Homo sapiens, UniProt Q15116)
# T1 construct: expressed in transfected cells; host or cells: Jurkat
# Assay: Jurkat-PD-1 Cell Binding High-Content Screening Assay (CBA)
# Format: cell-based
# Settings: Jurkat cell line over-expressing human PD-1; PE-labeled PD-L1-Ig 20 nM final; read-out: Jurkat hPD1-PDL1 IC50
# Method in brief: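 First, compound is added to PD-1-expressing Jurkat cells in serum-containing DMEM and left 2 h at 37° C. Next, PE-conjugated PD-L1-Ig is introduced at 20 nM final concentration for 1 hour. Finally, cells are fixed in 4% paraformaldehyde with Hoechst 33342, washed and imaged.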
# T1 sequence (Q15116 25-288): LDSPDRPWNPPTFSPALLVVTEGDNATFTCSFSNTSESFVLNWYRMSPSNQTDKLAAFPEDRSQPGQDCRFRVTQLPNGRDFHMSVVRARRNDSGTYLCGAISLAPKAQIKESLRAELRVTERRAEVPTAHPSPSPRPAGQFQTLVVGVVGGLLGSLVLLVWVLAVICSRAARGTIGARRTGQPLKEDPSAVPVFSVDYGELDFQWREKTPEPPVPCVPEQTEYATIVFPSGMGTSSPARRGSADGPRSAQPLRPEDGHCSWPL
row,pIC50,SMILES
1,7.52,CC(C)C[C@@H]1NC(=O)[C@H](Cc2c[nH]c3ccccc23)NC(=O)[C@H](CC(=O)O)NC(=O)[C@H](Cc2ccc(OCC(=O)O)cc2)NC(=O)[C@H](CN)NC(=O)CSC[C@@H](C(=O)N[C@@H](CCN)C(=O)NCCCCCCCCCCC(=O)O)NC(=O)[C@H](CO)NC(=O)[C@H](C(C)O)NC(=O)[C@H](CC2CCCCC2)NC(=O)[C@H](CCN)NC(=O)[C@@H](CC(C)C)NC(=O)[C@H](CCCN)NC(=O)[C@H](C(C)C)NC(=O)[C@H](Cc2ccc(-c3ccccc3)cc2)NC1=O (stereo partly drawn) [Compound 3685] ({CH2CO}-[Dap]Y(Carboxymethyl)DWL[Bip]V[Orn][dL][Dab][Cha][Thr(3ξ)]SC[Dab][Aun]-OH; thioether N-14)
2,7.94,CC[C@H](C)[C@@H]1NC(=O)[C@H](Cc2ccc(-c3ccccc3)cc2)NC(=O)[C@H](C(C)C)NC(=O)[C@H](Cc2c[nH]c3ccccc23)NC(=O)[C@H](CC(=O)O)NC(=O)[C@H](Cc2ccc(OCC(=O)O)cc2)NC(=O)[C@H](Cc2ccncc2)NC(=O)CSC[C@@H](C(=O)N[C@@H](CCCN)C(=O)NCCOCCOCC(=O)NC2(C(=O)NCCCCCCCCCCC(=O)O)CC2)NC(=O)[C@H]([C@@H](C)O)NC(=O)[C@H](C(C)C)NC(=O)[C@H](CC(C)C)NC(=O)[C@H](CCN)NC(=O)[C@@H](CC(C)C)NC(=O)[C@H](CCCN)NC1=O [Compound 2005] ({CH2CO}-[4Pal]Y(Carboxymethyl)DWV[Bip]I[Orn][dL][Dab]LVTC[Orn][AEEA][Ac3c][Aun]-OH; thioether N-14)
3,8.25,C#CC[C@H](NC(=O)[C@H](CCN)NC(=O)[C@@H]1CSCC(=O)N[C@@H](CN2CCOCC2)C(=O)N[C@@H](Cc2ccc(OCC(=O)O)cc2)C(=O)N[C@@H](CC(=O)O)C(=O)N[C@@H](Cc2cccc(C)c2)C(=O)N[C@@H](Cc2ccc(C(=O)O)cc2)C(=O)N[C@@H](Cc2ccc(-c3ccccc3)cc2)C(=O)N[C@@H](Cc2ccc(C(=O)O)cc2)C(=O)N[C@@H](CCCN)C(=O)N[C@H](CC(C)C)C(=O)N[C@@H](CCN)C(=O)N[C@@H](CC2CCCCC2)C(=O)N[C@@H](C(C)(C)O)C(=O)N[C@@H](CO)C(=O)N1)C(=O)NCCCCCCCCCCC(=O)O [Compound 1286] ({CH2CO}-[Ala(morpholin-4-yl)]Y(Carboxymethyl)D[Phe(3-Me)][Phe(4-COOH)][Bip][Phe(4-COOH)][Orn][dL][Dab][Cha][Val(3-OH)]SC[Dab][Pra][Aun]-OH; thioether N-14)
4,6.60,CC(C)C[C@H]1NC(=O)[C@H](CCCN)NC(=O)[C@H](Cc2ccc(OCC(=O)O)cc2)NC(=O)[C@H](Cc2ccc(-c3ccccc3)cc2)NC(=O)[C@H](Cc2ccc(C(=O)O)cc2)NC(=O)[C@H](Cc2cccc(C(F)(F)F)c2)NC(=O)[C@H](CC(=O)O)NC(=O)[C@H](Cc2ccc(OCC(=O)O)cc2)NC(=O)[C@H]([C@H](C)O)NC(=O)CSC[C@@H](C(=O)N[C@@H](CCN)C(=O)NCCOCCOCCOCCOCCOCCOCCC(=O)NCCCCCCCCCCCCCCC(=O)O)NC(=O)[C@H](CCC(=O)O)NC(=O)[C@H](C(C)C)NC(=O)[C@H](CC2CCCCC2)NC(=O)[C@H](CCN)NC1=O [Compound 3912] ({CH2CO}-[aThr]Y(Carboxymethyl)D[Phe(3-CF3)][Phe(4-COOH)][Bip]Y(Carboxymethyl)[Orn][dL][Dab][Cha]VEC[Dab][PEG6]-{NH(CH2)14COOH}; thioether N-14)
5,7.37,Cc1cccc(C[C@@H]2NC(=O)[C@H](CC(=O)O)NC(=O)[C@H](Cc3ccncc3)NC(=O)[C@H](Cc3ccc(OCC(=O)O)cc3)NC(=O)CSC[C@@H](C(=O)N[C@@H](CCN)C(=O)NCCCCCCCCCCC(=O)O)NC(=O)[C@H]([C@@H](C)O)NC(=O)[C@H](C(C)C)NC(=O)[C@H](CC3CCCCC3)NC(=O)[C@H](CCN)NC(=O)[C@@H](CC(C)C)NC(=O)[C@H](CCCN)NC(=O)[C@H](Cc3ccc(O)cc3)NC(=O)[C@H](Cc3ccc(-c4ccccc4)cc3)NC(=O)[C@H](C(C)C)NC2=O)c1 [Compound 2733] ({CH2CO}-Y(Carboxymethyl)[4Pal]D[Phe(3-Me)]V[Bip]Y[Orn][dL][Dab][Cha]VTC[Dab][Aun]-OH; thioether N-14)
6,7.20,Cc1cccc(C[C@@H]2NC(=O)[C@H](CC(=O)O)NC(=O)[C@H](Cc3ccc(OCC(=O)O)cc3)NC(=O)[C@H](CN)NC(=O)CSC[C@@H](C(=O)N[C@@H](CCN)C(=O)NCCCCCCCCCCC(=O)O)NC(=O)[C@H](Cc3cccnc3)NC(=O)[C@H](C(C)C)NC(=O)[C@H](CC(C)C)NC(=O)[C@H](CCN)NC(=O)[C@@H](CC(C)C)NC(=O)[C@H](CCCN)NC(=O)[C@H](Cc3ccc(O)cc3)NC(=O)[C@H](Cc3ccc(-c4ccccc4)cc3)NC(=O)[C@H](C(C)C)NC2=O)c1 [Compound 2765] ({CH2CO}-[Dap]Y(Carboxymethyl)D[Phe(3-Me)]V[Bip]Y[Orn][dL][Dab]LV[3Pal]C[Dab][Aun]-OH; thioether N-14)
7,7.66,Cc1cccc(C[C@@H]2NC(=O)[C@H](CC(=O)O)NC(=O)[C@H](Cc3ccc(OCC(=O)O)cc3)NC(=O)[C@H](CCNC(=O)C(C)(C)C)NC(=O)CSC[C@@H](C(=O)N[C@@H](CCN)C(=O)NCCCCCCCCCCC(=O)O)NC(=O)[C@H](C(C)O)NC(=O)[C@H](C(C)C)NC(=O)[C@H](CC3CCCCC3)NC(=O)[C@H](CCN)NC(=O)[C@@H](CC(C)C)NC(=O)[C@H](CCCN)NC(=O)[C@H](CCCNC(N)=O)NC(=O)[C@H](Cc3ccc(-c4ccccc4)cc3)NC(=O)[C@H](C(C)C)NC2=O)c1 (stereo partly drawn) [Compound 3511] ({CH2CO}-[Dab](Piv)Y(Carboxymethyl)D[Phe(3-Me)]V[Bip][Cit][Orn][dL][Dab][Cha]V[Thr(3ξ)]C[Dab][Aun]-OH; thioether N-14)
8,7.78,CC(C)C[C@H]1NC(=O)[C@H](CCCN)NC(=O)[C@H](C(C)C)NC(=O)[C@H](Cc2ccc(-c3ccccc3)cc2)NC(=O)[C@H](C(C)C)NC(=O)[C@H](Cc2c[nH]c3ccccc23)NC(=O)[C@H](CC(=O)O)NC(=O)[C@H](Cc2ccc(OCC(=O)O)cc2)NC(=O)[C@H](CCCCNC(=N)N)NC(=O)CSC[C@@H](C(=O)NCC(=O)NCCOCCOCC(=O)N[C@@H](CCCN)C(=O)NCCCCCCCCCCCCC(=O)O)NC(=O)[C@H](CO)NC(=O)[C@H](C(C)C)NC(=O)[C@H](CC2CCCCC2)NC(=O)[C@H](CCN)NC1=O [Compound 3037] ({CH2CO}-[hArg]Y(Carboxymethyl)DWV[Bip]V[Orn][dL][Dab][Cha]VSCG[AEEA][Orn]-{NH(CH2)12COOH}; thioether N-14)
9,7.58,Cc1cccc(C[C@@H]2NC(=O)[C@H](CC(=O)O)NC(=O)[C@H](Cc3ccc(OCC(=O)O)cc3)NC(=O)[C@H](CCCNC(=N)N)NC(=O)CSC[C@@H](C(=O)N[C@@H](CCNC(=O)C(C)(C)C)C(=O)NCCCCCCCCCCC(=O)O)NC(=O)[C@H]([C@@H](C)O)NC(=O)[C@H](C(C)C)NC(=O)[C@H](CC3CCCCC3)NC(=O)[C@H](CCN)NC(=O)[C@@H](CC(C)C)NC(=O)[C@H](CCCN)NC(=O)[C@H](Cc3ccc(OCC(=O)O)cc3)NC(=O)[C@H](Cc3ccc(-c4ccccc4)cc3)NC(=O)[C@H](Cc3ccc(O)cc3)NC2=O)c1 [Compound 2117] ({CH2CO}-RY(Carboxymethyl)D[Phe(3-Me)]Y[Bip]Y(Carboxymethyl)[Orn][dL][Dab][Cha]VTC[Dab](Piv)[Aun]-OH; thioether N-14)
10,7.39,Cc1cccc(C[C@@H]2NC(=O)[C@H](CC(=O)O)NC(=O)[C@H](Cc3ccc(OCC(=O)O)cc3)NC(=O)[C@H](Cc3ccncc3)NC(=O)CSC[C@@H](C(=O)N[C@@H](CO)C(=O)NCCCCCCCCCCC(=O)O)NC(=O)[C@H](CO)NC(=O)[C@H](C(C)(C)O)NC(=O)[C@H](CC3CCCCC3)NC(=O)[C@H](Cc3cnc[nH]3)NC(=O)[C@@H](CC(C)C)NC(=O)[C@H](CCCN)NC(=O)[C@H](Cc3ccc(OCC(=O)O)cc3)NC(=O)[C@H](Cc3ccc(-c4ccccc4)cc3)NC(=O)[C@H](Cc3ccc(OCC(=O)O)cc3)NC2=O)c1 [Compound 3722] ({CH2CO}-[4Pal]Y(Carboxymethyl)D[Phe(3-Me)]Y(Carboxymethyl)[Bip]Y(Carboxymethyl)[Orn][dL]H[Cha][Val(3-OH)]SCS[Aun]-OH; thioether N-14)
11,7.66,Cc1cccc(C[C@@H]2NC(=O)[C@H](CC(=O)O)NC(=O)[C@H](Cc3ccc(OCC(=O)O)cc3)NC(=O)[C@H](Cc3ccc(C(N)=O)cc3)NC(=O)CSC[C@@H](C(=O)N[C@@H](CCCN)C(=O)N[C@@H](CO)C(=O)NCCCCCCCCCCCC(=O)O)NC(=O)[C@H](CO)NC(=O)[C@H](C(C)(C)O)NC(=O)[C@H](CC3CCCCC3)NC(=O)[C@H](CCN)NC(=O)[C@@H](CC(C)C)NC(=O)[C@H](CCCN)NC(=O)[C@H](Cc3ccc(OCC(=O)O)cc3)NC(=O)[C@H](Cc3ccc(-c4ccccc4)cc3)NC(=O)[C@H](Cc3ccc(OCC(=O)O)cc3)NC2=O)c1 [Compound 3618] ({CH2CO}-[Phe(4-CONH2)]Y(Carboxymethyl)D[Phe(3-Me)]Y(Carboxymethyl)[Bip]Y(Carboxymethyl)[Orn][dL][Dab][Cha][Val(3-OH)]SC[Orn]S[12Ado]-OH; thioether N-14)
12,8.14,CC(C)C[C@H]1NC(=O)[C@H](CCCN)NC(=O)[C@H](CCCNC(N)=O)NC(=O)[C@H](Cc2ccc(-c3ccccc3)cc2)NC(=O)[C@H](C(C)C)NC(=O)[C@H](Cc2c[nH]c3ccccc23)NC(=O)[C@H](CC(=O)O)NC(=O)[C@H](Cc2ccc(OCC(=O)O)cc2)NC(=O)[C@H](CN)NC(=O)CSCC(C(=O)NCCOCCOCC(=O)NCCCCCCCCCCC(=O)O)NC(=O)[C@H](CCCCN)NC(=O)[C@H](C(C)C)NC(=O)[C@H](CC2CCCCC2)NC(=O)[C@H](CCN)NC1=O (stereo partly drawn) [Compound 2643] ({CH2CO}-[Dap]Y(Carboxymethyl)DWV[Bip][Cit][Orn][dL][Dab][Cha]VK[ξC][AEEA][Aun]-OH; thioether N-14)
